According to ChEMBL document CHEMBL1131267, “Diastereoselective synthesis of octahydro-14H-benzo[g]quinolino-[2,3-a]quinolidines. Improved cytotoxic activity against human brain tumor cell lines as a result of the increased rigidity of the molecular backbone” (1998):

Assays:
Assay type in all cases: functional
Conditions in all cases: read-out: LC50 (the source's name)
A 172 = assay: Compound was evaluated for cytotoxicity against human glioblastoma (A172) cell line
D283 Med = assay: Compound was evaluated for cytotoxicity against human medulloblastoma (D283 Med) cell line
T98G = assay: Compound was evaluated for cytotoxicity against human glioblastoma (T98G) cell line

Row | Structure (SMILES) | CC50 (A 172) [µM] | CC50 (D283 Med) [µM] | CC50 (T98G) [µM]
1 | CC1(C)c2cc(C(F)(F)F)ccc2N[C@@H]2[C@@H]3Cc4ccccc4CN3CC[C@@H]21 | 20 | 17 | 13
2 | C=C(C)[C@H]1CCN2Cc3ccccc3C[C@H]2[C@H]1NCc1ccc(Cl)cc1 | 55 | 29 | 42
3 | COc1ccc2c(c1)C(C)(C)[C@H]1CCN3Cc4ccccc4C[C@H]3[C@H]1N2 | 42 | 25 | 35
4 | CC1(C)c2cc(Cl)ccc2N[C@@H]2[C@@H]3Cc4ccccc4CN3CC[C@@H]21 | 22 | 8 | 12
5 | Cc1ccc2c(c1)C(C)(C)[C@H]1CCN3Cc4ccccc4C[C@H]3[C@H]1N2 | 25 | 20 | 20
6 | CC1(C)c2ccccc2N[C@@H]2[C@@H]3Cc4ccccc4CN3CC[C@@H]21 | 45 | 22 | 14
7 | Cc1cccc2c1N[C@@H]1[C@@H]3Cc4ccccc4CN3CC[C@@H]1C2(C)C | 31 | 20 | 21
